From patent US8129532B2, “Amino(oligo)thiophene dyes, preparation thereof, and optical methods of use” (The University of Connecticut, priority 2007, dated 2012)

Assays:
[1] = One-photon absorption and emission spectra in multilamellar lipid vesicles, water and ethanol; assay type: physicochemical; conditions: for Absorbance MLV: multilamellar lipid vesicles; for 1PF Abs. Max / 1PF Em. Max: one photon, soybean multi-lamellar lipid vesicles
Text: […] The column indicating relative signal change for one-photon fluorescence also lists the excitation light source used and the lower bounds of the long-pass emission detected.
Absorption and emission spectra were obtained for a series of dyes with different acceptors: pyridinium (PY-1261), quinolinium (PY-212), and acridinium (PY-2240).

[2] = tested on: NIE-115 mouse neuroblastoma; test: Time-dependence (kinetics) of SHG and 2PF signal change after voltage-clamp step; assay type: cell-based; conditions: for SHG Kinetics (exponential time constant): time resolution 5 ms
Text: For full details of our non-linear imaging microscope, we refer the reader to previously published descriptions. A. C. Millard, P. J. Campagnola, W. Mohler, A. Lewis, and L. M. Loew, “Second Harmonic Imaging Microscopy,” Meth. Enzymol. 361, 47-69 (2003); Millard, A. C., L. Jin, and L. M. Loew, “Second Harmonic Generation Imaging Microscopy with a High Power Ultrafast Fiber Laser,”Commercial and Biomedical Applications of Ultrafast Lasers. 5714-5716, 92-98 (2005); A. C. Millard, L. Jin, M.-D. Wei, J. P. Wuskell, A. Lewis, and L. M. Loew, “Sensitivity of Second Harmonic Generation from Styryl Dyes to Transmembrane Potential,” Biophys. J. 86, 1169-1176 (2004). Our current microscope combines a Fluoview (Olympus) scan-head and an Axiovert (Zeiss) inverted microscope constructed for multiple imaging methodologies including wide-field, one-photon excitation fluorescence imaging, as well as SHG and 2PF imaging. Our laser sources include a Mira (Coherent) Ti:sapphire laser and a Femtopower (Fianium) fiber laser operating at 1064 nm. Millard, A. C., L. Jin, and L. M. Loew, “Second Harmonic Generation Imaging Microscopy with a High Power Ultrafast Fiber Laser,”Commercial and Biomedical Applications of Ultrafast Lasers. 5714-5716, 92-98 (2005). For excitation, we routinely use an IR-Achroplan (Zeiss) 40×, 0.8 NA water-immersion objective though for shorter wavelengths we also use an A-Plan (Zeiss) 40×, 0.65 NA air objective. Fluorescence is imaged (for linear imaging) or collected (for non-linear imaging) back through the excitation objective, while SHG is collected in the forward, transmitted light direction by a condenser, either 0.8 NA or 0.55 NA (Zeiss). For optimal collection, the numerical aperture of the condenser should be at least 1/√2 of the numerical aperture of the excitation objective (L. Moreaux, O. Sandre, S. Charpak, M. Blanchard-Desce, and J. Mertz, “Coherent Scattering in Multi-Harmonic Light Microscopy,” Biophys. J. 80, 1568-1574 (2001); L. Moreaux, O. Sandre, and J. Mertz. “Membrane Imaging by Second Harmonic Generation Microscopy,” J. Opt. Soc. Am. B. 17, 1685-1694 (2000)), though in practice a condenser of slightly lower numerical aperture will often suffice. Since the wavelength of second harmonic light is precisely half that of the excitation light, the choice of filter for SHG imaging is greatly simplified and the primary concern is the blocking of the excitation light that is also transmitted through the sample as well as fluorescence that is emitted forwards.
NIE-115 mouse neuroblastoma were cultured in DMEM with 10% fetal bovine serum and 1% antibiotic-antimycotic (Invitrogen, Carlsbad, Calif.) in a 60 mm plastic dish (353002, Becton Dickinson, Franklin Lakes, N.J.). The culture was maintained at 37° C. with 5% CO2 for a period of 48 hours prior to experimentation.
For experimentation the growth medium was replaced with 3 mL of Earle's Balanced Salt Solution (EBSS, Sigma, St. Louis, Mo.) with 20 mM HEPES (Merck Biosciences AG, Laufelfingen, Switzerland). The internal buffer, injected into the patch pipette, was a potassium aspartate (140 mM, Sigma, St. Louis, Mo.), sodium chloride (5 mM, Sigma, St. Louis, Mo.) and HEPES (10 mM) solution at a pH of 7.35. The pH was adjusted with potassium hydroxide and hydrochloric acid.
For characterizing the voltage-sensitivity of SHG and 2PF, we used a slow (˜0.1 Hz) switching protocol as previously described (A. C. Millard, P. J. Campagnola, W. Mohler, A. Lewis, and L. M. Loew, “Second Harmonic Imaging Microscopy,” Meth. Enzymol. 361, 47-69 (2003); Millard, A. C., L. Jin, and L. M. Loew, “Second Harmonic Generation Imaging Microscopy with a High Power Ultrafast Fiber Laser,” Commercial and Biomedical Applications of Ultrafast Lasers. 5714-5716, 92-98 (2005); A. C. Millard, L. Jin, M.-D. Wei, J. P. Wuskell, A. Lewis, and L. M. Loew, “Sensitivity of Second Harmonic Generation from Styryl Dyes to Transmembrane Potential,” Biophys. J. 86, 1169-1176 (2004)) with a 50 mV step. […]

[3] = tested on: NIE-115 mouse neuroblastoma; test: SHG and 2PF voltage sensitivity, 50 mV step, slow switching protocol on patch-clamped neuroblastoma cell; assay type: cell-based; conditions: comparator named in the sentence (PY-1266; PY-1268)
Text: For full details of our non-linear imaging microscope, we refer the reader to previously published descriptions. A. C. Millard, P. J. Campagnola, W. Mohler, A. Lewis, and L. M. Loew, “Second Harmonic Imaging Microscopy,” Meth. Enzymol. 361, 47-69 (2003); Millard, A. C., L. Jin, and L. M. Loew, “Second Harmonic Generation Imaging Microscopy with a High Power Ultrafast Fiber Laser,”Commercial and Biomedical Applications of Ultrafast Lasers. 5714-5716, 92-98 (2005); A. C. Millard, L. Jin, M.-D. Wei, J. P. Wuskell, A. Lewis, and L. M. Loew, “Sensitivity of Second Harmonic Generation from Styryl Dyes to Transmembrane Potential,” Biophys. J. 86, 1169-1176 (2004). Our current microscope combines a Fluoview (Olympus) scan-head and an Axiovert (Zeiss) inverted microscope constructed for multiple imaging methodologies including wide-field, one-photon excitation fluorescence imaging, as well as SHG and 2PF imaging. Our laser sources include a Mira (Coherent) Ti:sapphire laser and a Femtopower (Fianium) fiber laser operating at 1064 nm. […] Fluorescence is imaged (for linear imaging) or collected (for non-linear imaging) back through the excitation objective, while SHG is collected in the forward, transmitted light direction by a condenser, either 0.8 NA or 0.55 NA (Zeiss). […]

Absorbance ethanol [1] | Absorbance MLV [1] | 1PF Abs. Max [1] | 1PF Em. Max [1] | Absorbance water [1] | Compound | SHG kinetics, in words [2] | SHG signal sensitivity relative to another dye [3] | SHG Kinetics (exponential time constant) [2]
614 nm | 547 nm | 547 nm | 686 nm | 539 nm | CCN(CC)c1ccc(-c2ccc(/C=C/c3cc[n+](CCC[N+](CC)(CC)CC)cc3)s2)s1 [PY-1261, Di-2-BTEPPTEA] | instantaneous | more than five times larger | –
624 nm | 552 nm | 552 nm | 694 nm | 555 nm | CCCCN(CCCC)c1ccc(-c2ccc(/C=C/c3cc[n+](CCC[N+](CC)(CC)CC)cc3)s2)s1 [PY-1266, Di-4-BTEPPTEA] | slower kinetic response | – | 23 ± 2 ms
616 nm | 547 nm | 547 nm | 692 nm | 567 nm | CCCN(CCC)c1ccc(-c2ccc(/C=C/c3cc[n+](CCC[N+](CC)(CC)CC)cc3)s2)s1 [PY-1286, Di-3-BTEPPTEA] | slower kinetic response | – | 27 ± 1 ms
